Tested on: MBP–CSSR (core stress-sensing region of yeast Ire1)
Assay: In vitro competition assay for peptide binding to the CSSR (fluorescence anisotropy of ΔEspP–FAM)
Design: species or system Saccharomyces cerevisiae
Settings: Fig. 6C
Procedure: Fig. 6. Two-hybrid and in vitro interaction of the CSSR with various peptides. (A,B) A yeast two-hybrid analysis was performed using the CSSR and its mutants as prey. The Subregion I 60-amino-acid portion (Sub-I), Segment 4 (Seg4; six tandem repeat), GGGSS (12 tandem repeat), Segments 1–3 (Segs1–3; amino acids 32–61 of yeast Ire1; two tandem repeat), Segments 4–6 (Segs4–6; amino acids 62–91 of yeast Ire1; two tandem repeat), the NUCR of human or mouse PERK (hPERK or mPERK), the Top2 IDR (Top2; two tandem repeat) and the San1 IDR (San1) were used as bait. Tester cell cultures were serially diluted tenfold, spotted on agar plates, incubated for 2–4 days and photographed. WT, wild type. (C) A fluorescently labeled peptide DEspP–FAM (10 µM final concentration) was mixed with MBP–CSSR (5 µM final concentration) and a competitor peptide [Segment (Seg) 2–6] and measured for fluorescence anisotropy. The resulting values from triplicate assays (mean±s.d.) are normalized to that for the no competitor peptide condition.
Next, we performed an in vitro competition assay to monitor the affinity of the Subregion I segments for the CSSR. A recombinant CSSR protein tagged with the maltose-binding protein (MBP–CSSR) was expressed in Escherichia coli and purified with amylose resin ([Kimata et al., 2007]). […]

Question: Which results are given for “Segment 4: Untagged competitor peptide NH2-KKKA-[10 amino acids of Segment 4 of yeast Ire1 Subregion I]-AAKKKK-COOH (H-KKKAIPAPRTTEGLAAKKKK-OH)”?
Answer: Affinity of capture by the CSSR relative to other Subregion I segments (in vitro competition analysis): higher affinity than for other segments; Reduction of ΔEspP–FAM fluorescence anisotropy by competitor peptide (reduced association between ΔEspP–FAM and MBP–CSSR) (ΔEspP–FAM 10 µM, MBP–CSSR 5 µM, elution buffer A (50 mM HEPES pH 8.0), 30 min incubation, 25°C, triplicate assays, normalized to no competitor): more effectively than the other segments did

Reference: article PMC4432228, “Tight regulation of the unfolded protein sensor Ire1 by its intramolecularly antagonizing subdomain” (Journal of Cell Science, 2015)
